Data as given in the supplement of paper PMC10307832.

Assays:
Experiment in all cases: relative viability (nuclei count vs DMSO), 5 days (fraction); higher = more cells survive
Gemcitabine + Pictilisib = compound: Nc1ccn([C@@H]2O[C@H](CO)[C@@H](O)C2(F)F)c(=O)n1 [Gemcitabine] + CS(=O)(=O)N1CCN(Cc2cc3nc(-c4cccc5[nH]ncc45)nc(N4CCOCC4)c3s2)CC1 [Pictilisib] (partner 1 µM)
How it was run: (§1)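 Relative viability equals treated-well nuclei counts divided by vehicle-well nuclei counts. Counts came from 4× images of lung cancer cell lines grown in 1536-well plates for 5 days after pin-tool dosing on the day after seeding. Dosing used one drug alone or a fixed anchor-drug dose plus five library-drug doses (not always all listed) in √10 steps, and values are medians of duplicate plates.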

[1] = compound: Nc1ccn([C@@H]2O[C@H](CO)[C@@H](O)C2(F)F)c(=O)n1 [Gemcitabine] + CC(=O)c1c(C)c2cnc(Nc3ccc(N4CCNCC4)cn3)nc2n(C2CCCC2)c1=O [Palbociclib] (partner 0.5 µM)
How it was run: as §1

Gemcitabine + Luminespib = compound: Nc1ccn([C@@H]2O[C@H](CO)[C@@H](O)C2(F)F)c(=O)n1 [Gemcitabine] + CCNC(=O)c1noc(-c2cc(C(C)C)c(O)cc2O)c1-c1ccc(CN2CCOCC2)cc1 [Luminespib] (partner 0.01 µM)
How it was run: as §1

Gemcitabine + OSI-027 = compound: Nc1ccn([C@@H]2O[C@H](CO)[C@@H](O)C2(F)F)c(=O)n1 [Gemcitabine] + COc1cccc2cc(-c3nc([C@H]4CC[C@H](C(=O)O)CC4)n4ncnc(N)c34)[nH]c12 [OSI-027] (partner 0.5 µM)
How it was run: as §1

Cell Line | relative viability (Gemcitabine + Pictilisib; first compound 0.001 µM) | relative viability (Gemcitabine + Pictilisib; first compound 0.003162 µM) | relative viability (Gemcitabine + Pictilisib; first compound 0.01 µM) | relative viability (Gemcitabine + Pictilisib; first compound 0.03162 µM) | relative viability (Gemcitabine + Pictilisib; first compound 0.1 µM) | relative viability ([1]; first compound 0.001 µM) | relative viability ([1]; first compound 0.003162 µM) | relative viability ([1]; first compound 0.01 µM) | relative viability ([1]; first compound 0.03162 µM) | relative viability ([1]; first compound 0.1 µM) | relative viability (Gemcitabine + Luminespib; first compound 0.001 µM) | relative viability (Gemcitabine + Luminespib; first compound 0.003162 µM) | relative viability (Gemcitabine + Luminespib; first compound 0.01 µM) | relative viability (Gemcitabine + Luminespib; first compound 0.03162 µM) | relative viability (Gemcitabine + Luminespib; first compound 0.1 µM) | relative viability (Gemcitabine + OSI-027; first compound 0.001 µM) | relative viability (Gemcitabine + OSI-027; first compound 0.003162 µM) | relative viability (Gemcitabine + OSI-027; first compound 0.01 µM) | relative viability (Gemcitabine + OSI-027; first compound 0.03162 µM) | relative viability (Gemcitabine + OSI-027; first compound 0.1 µM)
NCI-H1437 | 0.409 | 0.457 | 0.258 | 0.118 | 0.0772 | 0.317 | 0.351 | 0.331 | 0.225 | 0.171 | 1.08 | 1.02 | 0.645 | 0.391 | 0.191 | 0.822 | 0.734 | 0.452 | 0.297 | 0.181
NCI-H2085 | 0.45 | 0.448 | 0.461 | 0.344 | 0.347 | 0.441 | 0.433 | 0.316 | 0.314 | 0.3 | 0.435 | 0.477 | 0.369 | 0.298 | 0.263 | 0.896 | 0.75 | 0.479 | 0.414 | 0.189
H3255 | 0.524 | 0.299 | 0.334 | 0.194 | 0.137 | 0.348 | 0.347 | 0.286 | 0.285 | 0.264 | 0.899 | 0.752 | 0.707 | 0.271 | 0.248 | 0.353 | 0.366 | 0.394 | 0.26 | 0.248
NCI-H650 | 0.918 | 0.502 | 0.246 | 0.166 | 0.166 | 0.221 | 0.189 | 0.136 | 0.123 | 0.146 | 0.753 | 0.522 | 0.185 | 0.16 | 0.155 | 0.46 | 0.24 | 0.194 | 0.153 | 0.169
LCLC-103H | 0.579 | 0.641 | 0.659 | 0.627 | 0.417 | 0.491 | 0.504 | 0.497 | 0.42 | 0.406 | 0.956 | 1.01 | 0.845 | 0.314 | 0.183 | 0.442 | 0.449 | 0.418 | 0.288 | 0.296
LOU-NH91 | 0.496 | 0.475 | 0.486 | 0.389 | 0.34 | 0.524 | 0.522 | 0.478 | 0.474 | 0.412 | 0.322 | 0.322 | 0.339 | 0.182 | 0.24 | 0.709 | 0.616 | 0.45 | 0.252 | 0.215
NCI-H1650 | 0.524 | 0.466 | 0.267 | 0.181 | 0.144 | 0.339 | 0.308 | 0.261 | 0.186 | 0.127 | 0.197 | 0.185 | 0.177 | 0.197 | 0.177 | 0.501 | 0.184 | 0.114 | 0.137 | 0.134
NCI-H3122 | 0.648 | 0.595 | 0.553 | 0.265 | 0.159 | 0.195 | 0.177 | 0.175 | 0.119 | 0.148 | 0.1 | 0.0845 | 0.0643 | 0.0629 | 0.0705 | 1.05 | 0.918 | 0.246 | 0.133 | 0.112
PC-3 [JPC-3] | 0.847 | 0.61 | 0.514 | 0.33 | 0.286 | 0.512 | 0.472 | 0.499 | 0.471 | 0.443 | 0.79 | 0.685 | 0.415 | 0.349 | 0.314 | 0.799 | 0.656 | 0.378 | 0.259 | 0.257
NCI-H1651 | 0.501 | 0.54 | 0.409 | 0.136 | 0.0858 | 0.509 | 0.496 | 0.536 | 0.311 | 0.136 | 0.906 | 0.893 | 0.731 | 0.278 | 0.134 | 0.607 | 0.75 | 0.557 | 0.248 | 0.117
NCI-H2087 | 0.73 | 0.662 | 0.386 | 0.193 | 0.199 | 0.266 | 0.197 | 0.193 | 0.165 | 0.136 | 0.178 | 0.159 | 0.14 | 0.147 | 0.138 | 0.532 | 0.229 | 0.112 | 0.0781 | 0.0817
